Experiments:
Assay type in all cases: cell-based
[1] = tested on: human corneal endothelial cells; experiment: Decrease in cell density of cultured human corneal endothelial cells (phase difference microscope); conditions: 1, 3, 10 μM; after 20 days; vs control
Excerpt: For corneal endothelial cells, cell density decreases about 0.5% annually with age in a living organism. Further, the cell density also decreases due to various corneal endothelial diseases. Cell culture causes hypertrophy of cells and cellular as in a living organism and cellular senescence like reduction as in a living organism, which is a decrease in cell density. In this regard, the effect of p38 MAP kinase signal inhibition was studied on cellular senescence like reduction, which is a decrease in corneal endothelial cell density. […] Decrease in cell density due to culturing was inhibited and the cell density increased in an SB203580 concentration-dependent manner (bottom panel: vertical axis indicates cell density (mm^2) and the horizontal axis indicates, from the left, control, SB203580 1 μM, 3 μM, and 10 μM. ** indicates statistical significance (p<0.05) with respect to the control).
Cellular senescence-like decrease similar to a living organism, such as hypertrophy and decrease in density of cells, occurs from cell culture. In this regard, the effect of p38 MAP kinase signal inhibition on cellular senescence-like decrease such as decrease in corneal endothelial cell density was studied. […]

[2] = tested on: human corneal endothelial cells; experiment: Cytokine antibody array (Proteome Profiler) of corneal endothelial culture supernatant; conditions: 10 μM, semi quantitative
Description: Corneal endothelial cells were cultured in the presence of 10 μM SB203580, and culture supernatant was collected as a sample solution. Cytokines in the culture supernatant were comprehensively measured semi quantitatively with a Proteome Profiler (# ARY005, R&D). A membrane blotted with cytokine antibodies was placed in a tray. 2 ml of blocking solution was added and the membrane was incubated for 1 hour at room temperature. Biotin antibodies were added to the sample solution and incubated for 1 hour at room temperature. The blocking solution was discarded. The membrane was immersed in an antibody solution and incubated overnight at 4° C. After washing the membrane, 2 ml of HRP labeling streptavidin solution diluted with a blocking solution was added and the membrane was incubated at room temperature for 30 minutes. After washing the membrane, a substrate solution was added for detection with LAS400 (Fuji Film).
Based on the aforementioned experimental methodology, a cytokine antibody array (Proteome Profiler, # ARY005, R&D Systems) blotted with 36 types of antibodies was used to find the expression pattern of cytokines in a human corneal endothelial culture solution.

[3] = tested on: human corneal endothelial cells; experiment: Ki67 immunostaining of cultured human corneal endothelial cells; conditions: 10 μM; after 3 days; vs control
Description: (§1) *Human corneal endothelial cells (HCEC, where the cells were obtained and culturing method thereof): HCEC was cultured as follows. In short, Descemet's membrane including corneal endothelial cells was peeled off from a corneal for research purchased from the Seattle Eye Bank, and the corneal endothelial cells were mechanically peeled off with a basal membrane. After collagenase (ROCHE catalog No: 10 103 586 001) was used to detach and collect the corneal endothelial cell from the basal membrane (typically 1 mg/mL collagenase A (Roche Applied Science) was used for treatment at 37° C. for 2 hours), the cells were subjected to primary culture. The medium used was Opti-MEM I Reduced-Serum Medium, Liquid (INVITROGEN catalog No.: 31985-070) to which 8% fetal bovine serum (FBS) (BIOWEST, catalog No.: S1820-500), […] of CaCl2.2H2O (SIGMA catalog No.: C7902-500G), 0.08% of chondroitin sulfate (SIGMA catalog No.: C9819-5G), 20 μg/ml of ascorbic acid (SIGMA catalog No.: A4544-25G), 50 μg/ml of gentamicin (INVITROGEN catalog No.: 15710-064) and 5 ng/ml of EGF (INVITROGEN catalog No.: PHG0311) were added and acclimated for a 3T3 feeder cell. […] Immunostaining was applied to the cells for observation with a fluorescence microscope. […]

[4] = tested on: human corneal endothelial cells; experiment: Na+/K+-ATPase and ZO-1 immunostaining (pumping and barrier function markers); conditions: 1, 3, 10 μM; immunostaining after 20 days
Description: as §1

## C[S+]([O-])c1ccc(-c2nc(-c3ccncc3)c(-c3ccc(F)cc3)[nH]2)cc1 (stereo not shown) [SB203580, 4-(4-fluorophenyl)-2-(4-methylsulfinylphenyl)-5-(4-pyridyl)-1H-imidazole]
[1]
  Decrease in cell density due to culture: inhibited in a SB203580 concentration dependent manner
[2]
  Cytokines other than serpinE1 (GROa, sICAM-1, IL-6, IL-8, IL-23, MCP-1, MIF) in culture supernatant: decreased relative to vehicle
[3]
  Expression of Ki67 (Ki67 positive cells): significantly more cells
[4]
  expression of Na+/K+-ATPase and ZO-1: express Na^+/K^+-ATPase and ZO-1 and to maintain normal functions in all cells

— US10813920B2, “Drug for treating corneal endothelium by promoting cell proliferation or inhibiting cell damage” (THE DOSHISHA, priority 2013, dated 2020)
